# Results reported in patent US5955616A, “Pyrrolidine derivatives having phospholipase A2 inhibitory activity” (Shionogi & Co., Ltd., priority 1995, dated 1999).
# pIC50: −log10 of the molar value.
# Experiments:
# cPLA2 = target: T1, cPLA2 (Homo sapiens, UniProt P47712); experiment: cPLA2 Inhibitory activity (release of radiolabelled fatty acid from liposomes); type: biochemical; details: 50 mM HEPES pH 7.4, 1 mM CaCl2, 2.5 μM radio-labeled phosphatidylcholine, 15 min at 37° C; read-out: cPLA2 Inhibition Activity IC50
# T1 sequence (P47712 1-749): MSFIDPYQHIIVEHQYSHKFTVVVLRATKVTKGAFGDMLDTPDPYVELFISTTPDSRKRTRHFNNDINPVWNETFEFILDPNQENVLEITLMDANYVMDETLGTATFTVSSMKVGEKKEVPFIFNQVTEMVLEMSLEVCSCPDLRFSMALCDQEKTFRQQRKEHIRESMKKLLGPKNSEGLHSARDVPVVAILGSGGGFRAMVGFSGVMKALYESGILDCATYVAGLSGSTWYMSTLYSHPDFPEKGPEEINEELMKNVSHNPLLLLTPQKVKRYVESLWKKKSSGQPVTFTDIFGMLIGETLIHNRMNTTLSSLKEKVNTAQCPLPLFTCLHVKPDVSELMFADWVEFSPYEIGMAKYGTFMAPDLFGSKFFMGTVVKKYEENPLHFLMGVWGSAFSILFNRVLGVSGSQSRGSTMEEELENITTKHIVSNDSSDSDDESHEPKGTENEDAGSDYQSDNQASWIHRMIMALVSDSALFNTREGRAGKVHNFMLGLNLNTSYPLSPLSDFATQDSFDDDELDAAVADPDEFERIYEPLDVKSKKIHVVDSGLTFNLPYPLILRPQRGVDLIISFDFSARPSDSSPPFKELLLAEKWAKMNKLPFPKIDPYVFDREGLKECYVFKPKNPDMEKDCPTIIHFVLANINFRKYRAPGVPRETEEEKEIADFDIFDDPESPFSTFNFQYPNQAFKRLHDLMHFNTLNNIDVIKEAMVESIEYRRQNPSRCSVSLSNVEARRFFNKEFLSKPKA
# Method: Experiment 1 cPLA2 Inhibitory activity
# The compounds of the present invention was tested for the cPLA2 inhibitory activity by a method known in a literature (R. M. Kramer, E. F. Roberts, J. Manetta and J. E. Putnam, J. Biol. Chem., 268(8), 5268-5272 ([…])), as outlined below.
# As a substrate, liposomes which contain 1-palmitoyl-2-[^14 C]-arachidonoyl-sn-glycero-3-phosphocholine and sn-1,2-dioleoylglycerol at the ratio of 2:1 and have treated ultrasonically were used. The substrate was added to a 50 mM HEPES buffer (pH 7.4) (200 μl) containing 1 mM CaCl2, 2 mM dithiothreitol, 150 mM NaCl, 0.1 mg/ml BSA so as to make the concentration of radio-labeled phosphatidylcholine 2.5 μM. To the solution was added a compound of the present invention in DMSO (10 μl) to obtain reaction solutions each containing the test compound at 250 μM, 50 μM, 10 μm, 2 μM, and 0.4 μM. The reaction was allowed to start by adding an enzyme (cPLA2) (4 ng) and continued for 15 min at 37° C.
# The amount of fatty acids released by the reaction was measured on a liquid scintillation counter. Control was obtained by conducting the experiment in the same manner except that a compound of the present invention was not added. The inhibitory activity was expressed as percent (%) to the control value, which was used for the calculation of the concentration required for 50% inhibition (IC50, μM).
# [1] = test system: Prostaglandin E2 production in human fibroblasts; experiment: Inhibition of Production of Prostaglandin E2 in Human Fibroblasts (IL-1 stimulated); type: cell-based; details: Fibroblast, stimulation with IL-1, read-out: Inhibitory activity Against the Production of Prostaglandin E2 in Human Fibroblasts IC50
# Method: Experiment 2 Inhibition of Production of Prostaglandin E2 in Human Fibroblasts
# From this viewpoint, the compounds of the present invention were tested for the effect on the production of prostaglandin E2 by human fibroblasts under the stimulation with IL-1 according to the method of J. M. Dayer et al (CACHECTIN/TUMOR NECROSIS FACTOR STIMULATES COLLAGENASE AND PROSTAGLANDIN E2 PRODUCTION BY HUMAN SYNOVIAL CELLS AND DERMAL FIBROBLASTS; J. M. Dayer, B. Beutlerm and A. Cerami, J. Exp. Med., 162,2163-2168, 1985).
SMILES,pIC50 (cPLA2),pIC50 [1]
O=C1NC(=O)C(=Cc2ccc(NC(=O)[C@@H]3C[C@H](SCc4ccccc4)CN3C(=O)c3ccccc3)cc2)S1 [Compound A-3],5.28,5.62
COc1c(C(C)(C)C)cc(CS[C@H]2C[C@@H](C(=O)Nc3ccc(C=C4SC(=O)NC4=O)cc3)N(C(=O)c3ccccc3)C2)cc1C(C)(C)C [Compound A-4],5.80,5.31
O=C1NC(=O)C(=Cc2ccc(NC(=O)[C@@H]3C[C@H](SCc4ccc5ccccc5c4)CN3C(=O)c3ccccc3)cc2)S1 [Compound A-5],5.44,5.15
O=C1NC(=O)C(=Cc2ccc(NC(=O)[C@@H]3C[C@H](SCc4ccc(-c5ccccc5)cc4)CN3C(=O)c3ccccc3)cc2)S1 [Compound A-6],5.48,5.09
O=C1NC(=O)C(=Cc2ccc(NC(=O)[C@@H]3C[C@H](SCc4ccc(C(F)(F)F)cc4)CN3C(=O)c3ccccc3)cc2)S1 [Compound A-7],5.28,5.35
O=C1NC(=O)C(=Cc2ccc(NC(=O)[C@@H]3C[C@H](SCc4ccc(C(F)(F)F)cc4C(F)(F)F)CN3C(=O)c3ccccc3)cc2)S1 [Compound A-8],5.32,5.60
COc1cc(CS[C@H]2C[C@@H](C(=O)Nc3ccc(C=C4SC(=O)NC4=O)cc3)N(C(=O)c3ccccc3)C2)cc(OC)c1OC [Compound A-9],5.29,5.52
CC(C)=CCCC(C)=CCS[C@H]1C[C@@H](C(=O)Nc2ccc(C=C3SC(=O)NC3=O)cc2)N(C(=O)c2ccccc2)C1 [Compound A-11],5.33,5.07
O=C1NC(=O)C(=Cc2ccc(NC(=O)[C@@H]3C[C@H](SC(c4ccccc4)c4ccccc4)CN3C(=O)c3ccccc3)cc2)S1 [Compound A-12],5.89,5.80
CC(C)S[C@H]1C[C@@H](C(=O)Nc2ccc(C=C3SC(=S)NC3=O)cc2)N(C(=O)OC(C)(C)C)C1 [Compound A-16],4.66,5.54
CC(C)(C)OC(=O)N1C[C@@H](SCc2ccccc2)C[C@H]1C(=O)Nc1ccc(C=C2SC(=S)NC2=O)cc1 [Compound A-17],5.22,5.49
CS[C@H]1C[C@@H](C(=O)Nc2ccc(C=C3SC(=O)NC3=O)cc2)N(C(=O)c2ccc(-c3ccccc3)cc2)C1 [Compound A-20],4.66,6.52
O=C1NC(=S)S/C1=C\c1ccc(NC(=O)[C@@H]2C[C@H](SCc3ccccc3)CN2S(=O)(=O)Cc2c(Cl)cccc2Cl)cc1 [Compound A-53],,6.08
O=C1NC(=O)C(=C(CO)c2ccc(NC(=O)[C@@H]3C[C@H](SCc4ccccc4)CN3C(=O)Cc3ccc(Br)cc3)cc2)S1 [Compound D-3],,5.15
O=C1NC(=O)C(=C(CO)c2ccc(NC(=O)[C@@H]3CC(OC(c4ccccc4)c4ccccc4)CN3C(=O)c3ccccc3)cc2)S1 (stereo partly shown) [Compound I-1],4.59,
O=C1NC(=O)C(=C(CO)c2ccc(NC(=O)C3CC(OC(c4ccccc4)(c4ccccc4)c4ccccc4)CN3C(=O)c3ccccc3)cc2)S1 (stereo not shown) [Compound I-2],5.46,
O=C1NC(=O)/C(=C/c2ccc(NC(=O)[C@@H]3C[C@H](NCc4ccccc4)CN3C(=O)Cc3ccc(Br)cc3)cc2)S1 [Compound J-1],4.68,
O=C1NC(=S)S/C1=C\c1ccc(NC(=O)[C@@H]2CCCN2C(=O)Cc2ccc(Br)cc2)cc1 [Compound L-1],5.28,
O=C1NC(=O)/C(=C/c2ccc(NC(=O)[C@@H]3C[C@@H](SCc4ccccc4)CN3S(=O)(=O)c3ccc(-c4ccccc4)cc3)cc2)S1 [Compound M-1],4.64,
O=C1NC(=O)/C(=C/c2ccc(NC(=O)[C@H]3C[C@H](SCc4ccccc4)CN3S(=O)(=O)c3ccc(-c4ccccc4)cc3)cc2)S1 [Compound M-2],4.82,
O=C1NC(=O)/C(=C/c2ccc(NC(=O)[C@H]3C[C@@H](SCc4ccccc4)CN3S(=O)(=O)c3ccc(-c4ccccc4)cc3)cc2)S1 [Compound M-3],5.00,
O=C1NC(=O)C(=Cc2ccc(COC3CC(CNC(=O)c4ccc(-c5ccccc5)cc4)N(C(=O)c4ccccc4)C3)cc2)S1 (stereo not shown) [Compound N-1],5.18,
